The test system of data set [1] is E. coli. The data set can be described thus: MIC against E. coli in presence of 50 % human serum. Particulars: Escherichia coli; E. coli in presence of 50 % human serum; read-out: MICEc 50%HS. Type of data set: cell-based.
Data set [2] can be described thus: Reverse-phase HPLC retention time as estimate of lipophilicity. The data set is classed as physicochemical. Conditions: indicator of lipophilicity. In a few lines:
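Retention time on a reverse-phase HPLC column served as a relative lipophilicity estimate across structurally related albicidin derivatives.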

For data set [3], the system named is Salmonella typhimurium TA100. Kind of data set: MIC determination (broth microdilution). Conditions: Salmonella enterica, read-out: MIC S. typh. Type of data set: cell-based. An outline of the steps:
(§1)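 Standard CLSI M07-A9 microdilution in cation-adjusted Mueller-Hinton II broth; twofold-type series 128–0.016 μg/mL from DMSO stocks, DMSO solvent control included; 16 h incubation, visual endpoint.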
(Broth dilution looks for growth in wells or tubes with falling amounts of substance.)

In data set [4] the test system is E. coli DSM1116. The data set can be described thus: MIC determination (broth microdilution). Particulars: Escherichia coli, DSM1116; read-out: MIC E. coli DSM1116. Type of data set: cell-based. An outline of the steps:
as §1

Data set [5] relates to E. coli BW25113. The data set can be described thus: MIC determination (broth microdilution). The data set is classed as cell-based. Particulars: Escherichia coli, BW25113; read-out: MIC E. coli BW25113. In a few lines: as §1
Data set [6] has as its system Mycobacterium phlei DSM 750. The data set can be described thus: MIC determination (broth microdilution). Type of data set: cell-based. Conditions: Mycolicibacterium phlei, DSM750; read-out: MIC M. phlei. An outline of the steps:
as §1

Data set [7] deals with Micrococcus luteus DSM 1790. The data set can be described thus: MIC determination (broth microdilution). Type of data set: cell-based. Conditions: DSM1790, read-out: MIC M. luteus. In a few lines:
as §1

Data set [8] deals with Bacillus subtilis DSM 10. The data set can be described thus: MIC determination (broth microdilution). Type of data set: cell-based. Particulars: DSM10, read-out: MIC B. sub. In a few lines:
as §1

Converted amounts (≈) assume the structure as drawn.

`COc1c(NC(=O)c2ccc(NC(=O)c3ccc(NC(=O)[C@H](Cc4c[nH]nn4)NC(=O)c4ccc(NC(=O)c5ccc6ccccc6n5)cc4)cn3)c(OC)c2O)ccc(C(=O)O)c1O` [compound 11]: the MIC in data set [1] is 2 µg/mL; in data set [3], no more than 0.016 µg/mL; in data set [4], no more than 0.016 µg/mL; in data set [5], no more than 0.016 µg/mL; in data set [6] it was 0.5 µg/mL (≈ 0.568 µM); in data set [7] it was no more than 0.016 µg/mL. The MIC in data set [8] was no more than 0.016 µg/mL. Besides, the “Rt (retention time)” value in data set [2] was 9.49 min.

The values above are taken from publication PMC11979685, “Synthesis of Derivatives of the Antibiotic Albicidin: The N‐Terminal Fragment as Key to Control Potency and Resistance Mediated by the Binding Protein AlbA” (Chemistry (Weinheim an Der Bergstrasse, Germany), 2025).
